Results on three compounds are retold here after US20140243319A1, “TREATMENTS TARGETING GAMMA-SYNUCLEIN EXPRESSION LEVELS” (GEORGETOWN UNIVERSITY, priority 2011, published 2014).

Structures are written as SMILES. A value given as a limit tells only on which side of the number the result lay.

One data set relates to ASPC-1. As to the kind of experiment: MTT cell viability assay in ASPC-1 pancreatic cancer cells. The class given is cell-based. The conditions noted are these: Homo sapiens, ASPC1; ASPC-1 cells; read-out: IC50 values of cell death.
Data set [1] relates to cells that expressed γ-Syn. As to the kind of experiment: MTT cell death assay in cells that express γ-Syn. The class given is cell-based. The source says: Cells were selected that expressed γ-Syn.
(In general: Formazan colour is commonly taken as a measure of viable cells.)

A further data set has as its system HCT 116. Nature of the data set: MTT cell viability assay in HCT 116 cells. The class given is cell-based. The settings on record: Homo sapiens, read-out: IC50 values of cell death.
A further data set concerns DU145. Nature of the data set: MTT cell viability assay in DU145 cells. Format: cell-based. The settings on record: Homo sapiens, DU-145, read-out: IC50 values of cell death.
The test system of data set [2] is γ-Syn. As to the kind of experiment: γ-Syn protein expression in selected γ-Syn expressing cells. The class given is cell-based. The conditions noted are these: 48 h. The source says: Cells were selected that expressed γ-Syn. […] We next measured cell death by MTT assays and found a direct correlation between loss of γ-Syn protein expression and cell death.
Data set [3] has as its system WKY rats. As to the kind of experiment: Depression model, behavior of WKY rats. The settings on record: for mobility and climbing behaviors: WKY rats, chronic administration, FIG. 1. Format: in vivo, rat.
The next data set relates to MD-MB-231. Nature of the data set: MTT cell viability assay in MD-MB-231 cells. Format: cell-based. The conditions noted are these: read-out: IC50 values of cell death.
Data set [4] has as its system γ-Syn. Nature of the data set: Western blot of γ-Syn levels in T47D cells. Format: cell-based. The conditions noted are these: for decrease of γ-Syn levels: 48 h pretreatment, Western blot. Here is the method:
Various cancer cell lines were tested for expression of γ-Syn by Western blots. (FIG. 4) Two breast carcinoma cell lines were tested for γ-Syn expression by Western blots, and human brain (hIFG) was used as a positive control.

Data set [5] has as its system γ-Syn. Nature of the data set: γ-Syn expression in pancreatic cancer (PC) cells. Format: cell-based. The settings on record: clinically relevant concentrations.
The subject of another data set is BxPC-3. As to the kind of experiment: MTT cell viability assay in BxPC-3 pancreatic cancer cells. The settings on record: Homo sapiens; BxPC-3 cells; read-out: IC50 values of cell death. Format: cell-based.
The test system of data set [6] is γ-Syn. The conditions noted are these: rat depression model, Jeannotte et al. 2009; cited from earlier work.
A further data set deals with SK-BR-3. As to the kind of experiment: MTT cell viability assay in SK-BR-3 cells. The class given is cell-based. The conditions noted are these: Homo sapiens, read-out: IC50 values of cell death.
The test system of data set [7] is cells that did not express any γ-Syn. Nature of the data set: MTT cell death assay in cells that do not express γ-Syn. The class given is cell-based. The conditions noted are these: cells without γ-Syn expression, 50 μM DMI.
Description: Cells were selected that expressed γ-Syn. The selected cells were treated with varying concentrations of DMI (0-50 μM) for 48 h.
The subject of another data set is PC cells. Format: cell-based. The conditions noted are these: DMI at clinically relevant concentrations.
The test system of data set [8] is γ-Syn. Nature of the data set: Western blot of γ-Syn protein in brain of WKY rats. Format: in vivo, rat. The conditions noted are these: brains of WKY rats, FIG. 3. The source says: In brain, γ-Syn is expressed in presynaptic terminals of monoaminergic neurons, and our lab has shown that this protein can regulate the function of norepinephrine and serotonin transporters. Unlike α-Syn, whose role in neurodegenerative diseases such as Parkinson's disease is well established, a role for γ-Syn in neurodegeneration is not known. γ-Syn is overexpressed in the frontal cortex of the WKY, a rat model of depression. […] The ability of γ-Syn to bind tightly to MTs may be one mechanism by which its overexpression in carcinomas protects cells from the MT actions of chemotherapeutic agents, for example, taxol, nocodazole, vinblastine and colchicine.
Background: Immunoblotting shows a protein as a band on a membrane.

For the next data set, the system named is A549. As to the kind of experiment: MTT cell viability assay in A549 cells. Format: cell-based. The conditions noted are these: Homo sapiens, read-out: IC50 values of cell death.
In the next data set the test system is HT-29. As to the kind of experiment: MTT cell viability assay in HT-29 cells. The class given is cell-based. The conditions noted are these: Homo sapiens, read-out: IC50 values of cell death.
The subject of a further data set is Colo-357. Nature of the data set: MTT cell viability assay in Colo-357 pancreatic cancer cells. The conditions noted are these: Homo sapiens, COLO357; Colo-357 cells; read-out: IC50 values of cell death. The class given is cell-based.
The next data set deals with HeLa. Nature of the data set: MTT cell viability assay in HeLa cells. Format: cell-based. The conditions noted are these: Homo sapiens, read-out: IC50 values of cell death.
Data set [9] concerns WKY rats. The settings on record: rat depression model, Jeannotte et al. 2009; cited from earlier work.
The next data set concerns T47D cells. As to the kind of experiment: MTT cell viability assay in T47D breast cancer cells.
[10] abbreviates: T47D cells, 48 h, 25 μM single agent, MTT.

As usually defined, the IC50 is the point on the concentration scale where inhibition reaches its midpoint. Usually cell viability stands for the share of living cells, or the viability signal relative to a control. Read a low cell viability as a greater loss of cells. With `CNCCCN1c2ccccc2CCc2ccccc21` [DMI, desipramine], the IC50 with ASPC-1 is above 50 µM; with HCT 116, 43 ± 3 µM; in the data set with DU145 it was above 50 µM; with MD-MB-231, above 50 µM; in the data set on BxPC-3, above 50 µM; in the data set with SK-BR-3 it was 40 µM. In addition, the concentration for half-maximal inhibition (IC50) in the data set with A549 is above 50 µM; with HT-29, 38 µM; in the data set on Colo-357 it was above 50 µM; in the data set on HeLa, 43 µM; in the data set with T47D cells (read-out: IC50 values of cell death, T47D cells) it was 35 µM. Further, the cell death in [1] (each compound used alone) was around 15%; in [1] (γ-Syn expressing cells, 50 μM DMI, MTT), above 90%; in the data set with PC cells, above 60%. Further, the “γ-Syn protein expression (in words)” value in the data set on γ-Syn [2] (0-50 μM DMI) is “dose-dependent decrease in γ-Syn protein expression”. Moreover, in the data set on γ-Syn [2] (50 μM DMI), the “γ-Syn protein expression decreased” value is above 85%. Also, the depressive symptoms entry in the data set with WKY rats [3] (WKY rat, chronic treatment for 2 weeks) is “relief in the depressive symptoms”. Moreover, the “mobility and climbing behaviors” value in the data set on WKY rats [3] is “improvements in mobility and climbing behaviors”. For the same compound, the “γ-Syn levels (in words)” value in the data set with γ-Syn [4] (10 μM and 50 μM) is “reduces γ-Syn levels”. For the same compound, the “decrease of γ-Syn levels” value turned out to be 40% in the data set on γ-Syn [4] (10 μM DMI) and 85% in the data set on γ-Syn [4] (50 μM DMI). Further, the “γ-Syn expression (in words)” value in the data set with γ-Syn [5] is given as “reduce γ-Syn expression”. Besides, the “expression levels of γ-Syn” value in the data set on γ-Syn [6] is “reduces expression levels of γ-Syn”. Besides, the “cell death (in words)” value in [7] is reported as “no cell death”. For the same compound, the results for the “γ-Syn protein levels (Western blot)” value in the data set with γ-Syn [8] and in the data set on γ-Syn [8] (listed as desipramine) were “reduced levels of γ-Syn protein” and “reduced”, respectively. Besides, the depressive state result with WKY rats [9] is “relieves their depressive state”. Moreover, the cell viability is listed as around 80% with T47D cells (10 μM of either drug alone); 58% in the data set on T47D cells (setting [10]); around 5% in the data set with T47D cells (T47D cells, 48 h, 50 μM DMI alone, MTT (data not shown)).

Regarding `NNCCc1ccccc1` [phenelezine], the “mobility and climbing behaviors” value in the data set with WKY rats [3] is “improvements in mobility and climbing behaviors”.

With `CC(=O)O[C@H]1C(=O)[C@@]2(C)[C@H]([C@H](OC(=O)c3ccccc3)[C@]3(O)C[C@H](OC(=O)[C@H](O)[C@@H](NC(=O)c4ccccc4)c4ccccc4)C(C)=C1C3(C)C)[C@]1(OC(C)=O)CO[C@@H]1C[C@@H]2O` [taxol, Paclitaxel], the cell death in data set [1] (each compound used alone) was around 15%. The cell viability is recorded as around 80% with T47D cells (10 μM of either drug alone) and 52% in the data set with T47D cells (setting [10]). Moreover, the “sensitivity of cells to taxol (in words)” value in the data set on T47D cells (T47D cells expressing γ-Syn) is listed as “resistant to taxol treatment”.
